Columns and labels:
[1] = tested on: animal models of ischemia/reperfusion injury; details: with a sodium-hydrogen exchanger inhibitor at reperfusion; or just before reperfusion in animal models; cited from earlier work
[2] = tested on: wild-type and TNF 1.6 mice; assay: Left ventricular hemodynamics: chronotropic and functional responsiveness to adenosine analogue or AR agonists; assay type: in vivo, mouse
Experimental: FIGS. 16A-16B show the cardiac response of wild type (WT) and TNF 1.6 transgenic mice to an adenosine analogue or AR agonists. Under anesthetization, a 1.4 F micromanometer catheter (Millar Instruments) was inserted into the left ventricle through the right carotid artery. Chronotropic and functional responsiveness to adenosine analogue or AR agonists were recorded. […] Values are mean±SEM (n=5). *P<0.05 vs. age-matched WT. The graph measured the slope (in vivo chronotropic responsiveness) from baseline to 10 minutes after drug administration in wild-type and TNF 1.6 mice. Values were mean±SEM (n=5) and compared using ANOVA General Linear Model with repeated measures. *P<0.05 vs. age-matched WT in slope change. The graph in FIG. 16B measured the slope (arterial pressure or cardiac contractility) from baseline to 10 minutes after drug administration in wild-type and TNF1.6 mice. Values were mean±SEM (n=5) and compared using ANOVA General Linear Model with repeated measures. *P<0.05 vs. age-matched WT in slope change. Left Ventricular Hemodynamics Measurement. After anesthetization with 2.5% Avertin (10 μl/g body weight, IP, Aldrich Chemical Co), mice were placed in the supine position. A 1.4 F micromanometer catheter (Millar Instruments) was inserted into the left ventricle through the right carotid artery.^64,65 Left ventricular pressure and heart rate were then recorded at baseline and 10 minutes after injection of CPA (0.1 mg/kg body weight, IP, Sigma-Aldrich Co). A1 receptor-specific functional response. To determine whether the changes in A1-AR levels had functional significance in TNF 1.6 mice, the inventors determined the chronotropic response to the selective A1-AR agonist, 2-chloro-N^6-cyclopentanyladenosine (CPA).

[3] = tested on: cardiac A1-AR expression (tTA transactivation); assay: Doxycycline-regulated A1-AR transgene expression (tet-off system) in A1-TG mice; assay type: in vivo, mouse
Source text: Transgenic mouse generation. The human A1-AR cDNA was cloned into a cardiac-specific and inducible controlled vector (TREMHC)^64 composed of a modified mouse α-myosin heavy chain minimal promoter fused with nucleotide binding sites for tetracyline transactivating factor (tTA).^33 A1-AR transgenic mice, engineered on a FVB background (PolyGene, Switzerland), were crossed with mice that expressed tTA in the heart (MHC-tTA) (FIG. 1A). In this “tet-off” inducible system, the stable tetracycline analog, doxycycline (DOX), inhibits tTA transactivation and was administered to mice at 300 mg/kg of mouse diet (Bio-Serv, NJ). Survival studies were performed using both male and female mice and found no statistical significant differences. Therefore, only male mice were used for subsequent studies. All protocols were approved by the Institutional Animal Care and Use Committee of Thomas Jefferson University.
Doxycyline-regulated A1-AR expression. The stable tetracycline analog, doxycycline (DOX), inhibits tTA transactivation. The inventors determined a minimal dose of DOX (300 mg/kg of mouse diets) that attenuated A1-AR expression, which, in turn prevented cardiomyopathy. […] To generate inducible A1-AR transgenic mice (A1-TGInd), DOX was removed when mice reached three-weeks of age. […] At six weeks of age, A1-AR protein expression in A1-TGCcon and A1-TGInd was identical (FIGS. 2B and C). […]

WT mice = assay: Effect of DOX diet on heart size and function of wild type mice; assay type: in vivo, mouse; details: 300 mg/kg diet; 12-week-old mice; FIGS. 9 and 10
Experimental: 7-10 12-weeks old mice from each group were measured. No significance was detected at p-value setting of P<0.05.
Echocardiography were performed on 7-10 12-weeks-old male mice. No significance was detected at p-value setting of P<0.05.
Echocardiography and Electrocardiogram (ECG). Echocardiographic studies on A1-AR transgenic mice were performed using an ultrasonographic system (ACUSON Sequoia C256) as described.^34,35 […] Non-transgenic littermates served as controls and unless otherwise noted, all mice were male. Mice were anesthetized with 2.5% Avertin (10 μl/g body weight, IP, Aldrich Chemical Co) and placed in the supine position. A 14-MHz transducer was applied to the left hemithorax. Two-dimensional targeted M-mode imaging was obtained from the short-axis view at the level of the greatest left ventricular dimension at baseline. […] End diastole was determined at the maximal left ventricular diastolic dimension, and end systole was taken at the peak of posterior-wall motion. […] ECG was recorded for 2 minutes and analyzed using Char 5 software (Adinstruments). […]

CCNC(=O)[C@H]1CC(n2cnc3c(N[C@H](CC)Cc4sccc4Cl)ccnc32)[C@H](O)[C@@H]1O (relative stereo) [AMP 579, [1S-[1α,2β,3β,4α(S*)]]-4-[7-[[3-chloro-2-thienyl)methyl]propyl]amino]-3H-imidazo[4,5-b]pyridin-3-yl]-N-ethyl-2,3-dihydroxycyclopentanecarboxamide]
cardioprotection [1]: cardioprotective

OC[C@H]1O[C@@H](n2cnc3c(NC4CCCC4)nc(Cl)nc32)[C@H](O)[C@@H]1O [CPA, 2-chloro-N^6-cyclopentanyladenosine]
arterial pressure and cardiac contractility after injection ([2]; baseline to 10 minutes after CPA injection, FIG. 16B): only slightly increased arterial pressure and cardiac contractility | chronotropic response in TNF 1.6 mice compared with age- and gender-matched wild-type controls ([2]; baseline to 10 minutes after drug administration, n=5): far more robust decrease in heart rate | heart rate (chronotropic response) ([2]; wild-type mice, baseline to 10 minutes after injection, CPA 0.1 mg/kg IP): effectively decreased heart rate

C[C@H]1c2cccc(O)c2C(=O)C2=C(O)[C@]3(O)C(=O)C(C(N)=O)=C(O)[C@@H](N(C)C)[C@@H]3[C@@H](O)[C@@H]21 [DOX, doxycycline]
minimal dose that attenuated A1-AR expression ([3]; in turn prevented cardiomyopathy): 300 mg/kg of mouse diets | transgene suppressed ([3]; sub-optimum DOX dose): 80% | WT mouse heart size or function (WT mice): did not affect WT mouse heart size or function
